Experimental data as given in publication PMC11511367, “Antiproliferative Effects of Naja anchietae and Naja senegalensis Venom Peptides on Glioblastoma Cell Lines” (Toxins, 2024).
Bridges are numbered along the chain shown (N, C = ends). Where no end group is shown, it is not given here.

Tests used:
Type in all cases: cell-based
U251 glioblastoma cells = experiment: MTT antiproliferative assay on U251 cells; settings: Brain glioblastoma U251, MTT, 72 h, 1 × 10^−7 to 1 × 10^−4 Molar, OD 570 nm; three-parameter log-logistic fit
Text: (§1) The purified peptides, named CTNsen1, CTNsen2, CTNsen3, CTNanc1, CTNanc2, and CTNanc3 from Naja senegalensis and Naja anchietae respectively, were subsequently tested for their antiproliferative effects on several glioblastoma cell lines (U87, U251, and T98G) as well as on primary human umbilical vein endothelial cells (HUVECs). A series of increasing concentrations (1 × 10^−⁷, 0.5 × 10^−6, 1 × 10^−⁶, 0.5 × 10^−5, 1 × 10^−⁵, 0.5 × 10^−4, and 1 × 10^−⁴ Molar) were used. The dose-response curves for each peptide are depicted in Figure 9, Figure 10, Figure 11 and Figure 12.
Figure 10 Antiproliferative activity of CTNsen1 (a), CTNsen2 (b), CTNsen3 (c), CTNanc1 (d), CTNanc2 (e), and CTNanc3 (f) from Naja senegalensis and Naja anchietae respectively. […] The OD was measured at 570 nm.
(§2) U87 and T98G were plated at a density of 4000 cells per well and U251 cells at a density of 2500 cells per well in microtiter plates and allowed to adhere overnight at 37 °C in a 5% CO2 humidified environment. The following day, the medium was replaced with fresh medium containing our venom peptides under investigation. After a 72-h incubation period, cells were treated with MTT (Promega, Lyon, France) at a concentration of 0.5 mg/mL. […] Viable cells were then quantified by measuring the absorbance at 570 nm. […] Model calibration was assessed using the drm() function. […]

T98G glioblastoma cells = experiment: MTT antiproliferative assay on T98G cells; settings: Brain glioblastoma T98G, 72 h, 1 × 10^−7 to 1 × 10^−4 Molar, OD 570 nm, three-parameter log-logistic fit
Text: as §1
Figure 11 Antiproliferative activity of CTNsen1 (a), CTNsen2 (b), CTNsen3 (c), CTNanc1 (d), CTNanc2 (e), and CTNanc3 (f) from Naja senegalensis and Naja anchietae, respectively. […] The OD was measured at 570 nm.
as §2

MCF-7 cells = experiment: MTT antiproliferative assay on MCF-7 cells (venom screening and isolated peptides); settings: MCF7 cells, 72 h, 4 µg and 20 µg of peptide
Description: We screened nearly 40 different animal venoms to evaluate their potential anticancer properties. The venoms were solubilized at a concentration of 1.5 mg/mL in water. The antiproliferative activity of these venoms was tested at two concentrations, 3 µg and 15 µg, against MCF-7 cells (Appendix A, Figure A1).
Figure A1 Antiproliferative activity of different animal venoms. […] The OD was measured at 570 nm after 72 h of treatment. The abbreviations include Na: Naja anchietae; Vg: Viridovipera gumprechti; Vk: Vipera kaznakovi; Tv: Trimeresurus vogeli; Tt: Trimeresurus trigonocephalus; Ach: Atheris chlorechis; Ath ni: Atheris nitschei nitschei; Nox: Naja oxiana; Np: Naja philippinensis; At sq: Atheris squamigera; Nhl: Naja haje legionis; Por Oph: Porthidium ophryomegas; Ph: Parias hageni; Ns: Naja senegalensis.
Figure A2 Antiproliferative activity of CTNsen1, CTNsen2, CTNsen3, CTNanc1, CTNanc2, and CTNanc3 from Naja senegalensis (b) and Naja anchietae (a), respectively. […] Na and Ns here were used as a positive control at two concentrations (3 µg and 15 µg). The OD was measured at 570 nm.

“LKCHQLVPPFWKTCPEGKNLCYKMYMVSSSTVPVKRGCIDVCPKNSALVKYVCCNTDKCN (disulfide 3-21, 14-38, 42-53, 54-59) [CTNsen1]” was tested, and the “IC50 (μg/mL), U251” value (U251 glioblastoma cells) was “Inactive”, the “IC50 (μg/mL), T98G” value (T98G glioblastoma cells) was “Inactive” and the “Antiproliferative activity of isolated peptides” value (MCF-7 cells) was “activity was confirmed”.
